Measured values: the NIST ThermoML archive (doi:10.1016/j.jct.2008.10.016)
Numbers after ± are expanded uncertainties.

Assay: xn = mol fraction of the nth substance listed
Details: Drop volume

For `CCCCCl` [1-chlorobutane] + CCCCCC, the surface tension liquid-gas (283.15 K, x2 = 0.0493) was 24.17 ± 0.3 mN/m, the surface tension liquid-gas (283.15 K, x2 = 0.1016) was 23.7 ± 0.29 mN/m and the surface tension liquid-gas (283.15 K, x2 = 0.2048) was 22.96 ± 0.29 mN/m. It also gave a surface tension liquid-gas (283.15 K, x2 = 0.3038) of 22.32 ± 0.28 mN/m, a surface tension liquid-gas (283.15 K, x2 = 0.3967) of 21.82 ± 0.27 mN/m and a surface tension liquid-gas (283.15 K, x2 = 0.5015) of 21.29 ± 0.27 mN/m. It also gave a surface tension liquid-gas (283.15 K, x2 = 0.6086) of 20.85 ± 0.26 mN/m, a surface tension liquid-gas (283.15 K, x2 = 0.7097) of 20.48 ± 0.26 mN/m and a surface tension liquid-gas (283.15 K, x2 = 0.804) of 20.19 ± 0.26 mN/m. It also gave a surface tension liquid-gas (283.15 K, x2 = 0.9021) of 19.91 ± 0.25 mN/m, a surface tension liquid-gas (283.15 K, x2 = 0.9391) of 19.81 ± 0.25 mN/m and a surface tension liquid-gas (288.15 K, x2 = 0.0493) of 23.68 ± 0.29 mN/m. For the same compound, the surface tension liquid-gas (288.15 K, x2 = 0.1016) was 23.21 ± 0.29 mN/m, the surface tension liquid-gas (288.15 K, x2 = 0.2048) was 22.46 ± 0.28 mN/m and the surface tension liquid-gas (288.15 K, x2 = 0.3038) was 21.83 ± 0.27 mN/m. For the same compound, the surface tension liquid-gas (288.15 K, x2 = 0.3967) was 21.32 ± 0.27 mN/m, the surface tension liquid-gas (288.15 K, x2 = 0.5015) was 20.78 ± 0.26 mN/m and the surface tension liquid-gas (288.15 K, x2 = 0.6086) was 20.31 ± 0.26 mN/m. The surface tension liquid-gas (288.15 K, x2 = 0.7097) was 19.93 ± 0.25 mN/m, the surface tension liquid-gas (288.15 K, x2 = 0.804) was 19.63 ± 0.25 mN/m and the surface tension liquid-gas (288.15 K, x2 = 0.9021) was 19.35 ± 0.25 mN/m. For the same compound, the surface tension liquid-gas (288.15 K, x2 = 0.9391) was 19.24 ± 0.25 mN/m, the surface tension liquid-gas (293.15 K, x2 = 0.0493) was 23.11 ± 0.29 mN/m and the surface tension liquid-gas (293.15 K, x2 = 0.1016) was 22.63 ± 0.28 mN/m. For the same compound, the surface tension liquid-gas (293.15 K, x2 = 0.2048) was 21.88 ± 0.27 mN/m, the surface tension liquid-gas (293.15 K, x2 = 0.3038) was 21.28 ± 0.27 mN/m and the surface tension liquid-gas (293.15 K, x2 = 0.3967) was 20.79 ± 0.26 mN/m. It also gave a surface tension liquid-gas (293.15 K, x2 = 0.5015) of 20.25 ± 0.26 mN/m, a surface tension liquid-gas (293.15 K, x2 = 0.6086) of 19.77 ± 0.25 mN/m and a surface tension liquid-gas (293.15 K, x2 = 0.7097) of 19.4 ± 0.25 mN/m. The surface tension liquid-gas (293.15 K, x2 = 0.804) was 19.1 ± 0.24 mN/m, the surface tension liquid-gas (293.15 K, x2 = 0.9021) was 18.84 ± 0.24 mN/m and the surface tension liquid-gas (293.15 K, x2 = 0.9391) was 18.73 ± 0.24 mN/m. For the same compound, the surface tension liquid-gas (298.15 K, x2 = 0.0493) was 22.74 ± 0.28 mN/m, the surface tension liquid-gas (298.15 K, x2 = 0.1016) was 22.27 ± 0.28 mN/m and the surface tension liquid-gas (298.15 K, x2 = 0.2048) was 21.52 ± 0.27 mN/m. It also gave a surface tension liquid-gas (298.15 K, x2 = 0.3038) of 20.93 ± 0.26 mN/m, a surface tension liquid-gas (298.15 K, x2 = 0.3967) of 20.43 ± 0.26 mN/m and a surface tension liquid-gas (298.15 K, x2 = 0.5015) of 19.89 ± 0.25 mN/m. For the same compound, the surface tension liquid-gas (298.15 K, x2 = 0.6086) was 19.39 ± 0.25 mN/m, the surface tension liquid-gas (298.15 K, x2 = 0.7097) was 19 ± 0.24 mN/m and the surface tension liquid-gas (298.15 K, x2 = 0.804) was 18.71 ± 0.24 mN/m. For the same compound, the surface tension liquid-gas (298.15 K, x2 = 0.9021) was 18.43 ± 0.24 mN/m, the surface tension liquid-gas (298.15 K, x2 = 0.9391) was 18.31 ± 0.24 mN/m and the surface tension liquid-gas (303.15 K, x2 = 0.0493) was 22.08 ± 0.28 mN/m. It also gave a surface tension liquid-gas (303.15 K, x2 = 0.1016) of 21.62 ± 0.27 mN/m, a surface tension liquid-gas (303.15 K, x2 = 0.2048) of 20.89 ± 0.26 mN/m and a surface tension liquid-gas (303.15 K, x2 = 0.3038) of 20.32 ± 0.26 mN/m. It also gave a surface tension liquid-gas (303.15 K, x2 = 0.3967) of 19.83 ± 0.25 mN/m, a surface tension liquid-gas (303.15 K, x2 = 0.5015) of 19.31 ± 0.25 mN/m and a surface tension liquid-gas (303.15 K, x2 = 0.6086) of 18.82 ± 0.24 mN/m. It also gave a surface tension liquid-gas (303.15 K, x2 = 0.7097) of 18.46 ± 0.24 mN/m, a surface tension liquid-gas (303.15 K, x2 = 0.804) of 18.18 ± 0.23 mN/m and a surface tension liquid-gas (303.15 K, x2 = 0.9021) of 17.91 ± 0.23 mN/m. The surface tension liquid-gas (303.15 K, x2 = 0.9391) was 17.79 ± 0.23 mN/m, the surface tension liquid-gas (308.15 K, x2 = 0.0493) was 21.5 ± 0.27 mN/m and the surface tension liquid-gas (308.15 K, x2 = 0.1016) was 21.03 ± 0.27 mN/m. For the same compound, the surface tension liquid-gas (308.15 K, x2 = 0.2048) was 20.28 ± 0.26 mN/m, the surface tension liquid-gas (308.15 K, x2 = 0.3038) was 19.69 ± 0.25 mN/m and the surface tension liquid-gas (308.15 K, x2 = 0.3967) was 19.18 ± 0.24 mN/m. The surface tension liquid-gas (308.15 K, x2 = 0.5015) was 18.64 ± 0.24 mN/m, the surface tension liquid-gas (308.15 K, x2 = 0.6086) was 18.14 ± 0.23 mN/m and the surface tension liquid-gas (308.15 K, x2 = 0.7097) was 17.77 ± 0.23 mN/m. The surface tension liquid-gas (308.15 K, x2 = 0.804) was 17.46 ± 0.23 mN/m, the surface tension liquid-gas (308.15 K, x2 = 0.9021) was 17.16 ± 0.22 mN/m and the surface tension liquid-gas (308.15 K, x2 = 0.9391) was 17.02 ± 0.22 mN/m. For the same compound, the surface tension liquid-gas (313.15 K, x2 = 0.0493) was 21.04 ± 0.27 mN/m, the surface tension liquid-gas (313.15 K, x2 = 0.1016) was 20.59 ± 0.26 mN/m and the surface tension liquid-gas (313.15 K, x2 = 0.2048) was 19.84 ± 0.25 mN/m. The surface tension liquid-gas (313.15 K, x2 = 0.3038) was 19.28 ± 0.25 mN/m, the surface tension liquid-gas (313.15 K, x2 = 0.3967) was 18.79 ± 0.24 mN/m and the surface tension liquid-gas (313.15 K, x2 = 0.5015) was 18.27 ± 0.23 mN/m. For the same compound, the surface tension liquid-gas (313.15 K, x2 = 0.6086) was 17.81 ± 0.23 mN/m, the surface tension liquid-gas (313.15 K, x2 = 0.7097) was 17.47 ± 0.23 mN/m and the surface tension liquid-gas (313.15 K, x2 = 0.804) was 17.18 ± 0.22 mN/m. It also gave a surface tension liquid-gas (313.15 K, x2 = 0.9021) of 16.89 ± 0.22 mN/m and a surface tension liquid-gas (313.15 K, x2 = 0.9391) of 16.75 ± 0.22 mN/m.
